Assay results as given in US9232796B2, “Herbicidal compositions comprising 4-amino-3-chloro-5-fluoro-6-(4-chloro-2-fluoro-3-methoxyphenyl) pyridine-2-carboxylic acid or a derivative thereof and acetyl-CoA carboxylase (ACCase) inhibitors” (DOW AGROSCIENCES LLC, priority 2012, dated 2016).

Key:
APESV = test: Example IV postemergence foliar-applied, greenhouse, cereal crops weeds; format: in vivo, Apera spica-venti (L.) Beauv.
Description: Seeds of the desired test plant species were planted in Sun Gro MetroMix® 306 planting mixture, which typically has a pH of 6.0 to 6.8 and an organic matter content of about 30 percent, in plastic pots with a surface area of 103.2 square centimeters (cm^2). […] The plants were grown for 7-36 days in a greenhouse with an approximate 14 hour photoperiod which was maintained at about 18° C. during the day and about 17° C. during the night. Nutrients and water were added on a regular basis and supplemental lighting was provided with overhead metal halide 1000-Watt lamps as necessary. The plants were employed for testing when they reached the second or third true leaf stage.
Treatments consisted of the benzyl ester of 4-amino-3-chloro-5-fluoro-6-(4-chloro-2-fluoro-3-methoxy-phenyl)pyridine-2-carboxylic acid (Compound A), formulated as an SC, a second cereal herbicide alone and then both in combination.
Other herbicidal components were applied on an active ingredient basis and included acetyl-CoA carboxylase (ACCase)-inhibiting herbicides clodinafop-propargyl, fenoxaprop-P-ethyl, pinoxaden and tralkoxydim.
Measured aliquots of benzyl ester of 4-amino-3-chloro-5-fluoro-6-(4-chloro-2-fluoro-3-methoxy-phenyl)pyridine-2-carboxylic acid (Compound A) were placed in 25 milliliter (mL) glass vials and diluted in a volume of 1.25% (v/v) Agri-Dex® crop oil concentrate to obtain stock solutions. Compound requirements are based upon a 12 mL application volume at a rate of 187 liters per hectare (L/ha). […] Formulated compounds were applied to the plant material with an overhead Mandel track sprayer equipped with an 8002E nozzle calibrated to deliver 187 L/ha over an application area of 0.503 square meters (m^2) at a spray height of 18 inches (46 cm) above average plant canopy. Control plants were sprayed in the same manner with the solvent blank.
(§1) The treated plants and control plants were placed in a greenhouse as described above and watered by sub-irrigation to prevent wash-off of the test compounds. After 20-22 days, the condition of the test plants as compared with that of the control plants was determined visually and scored on a scale of 0 to 100 percent where 0 corresponds to no injury and 100 corresponds to complete kill.
Colby's equation was used to determine the herbicidal effects expected from the mixtures (Colby, S. R. 1967. Calculation of the synergistic and antagonistic response of herbicide combinations. Weeds 15:20-22.).
The following equation was used to calculate the expected activity of mixtures containing two active ingredients, A and B: Expected=A+B−(A×B/100)

BRAPP = test: Example I postemergence foliar-applied, greenhouse, direct seeded rice weeds; format: in vivo, Brachiaria platyphylla (Griseb.) Nash
Text: Seeds or nutlets of the desired test plant species were planted in a soil matrix prepared by mixing a loam or sandy loam soil (e.g., 28.6 percent silt, 18.8 percent clay, and 52.6 percent sand, with a pH of about 5.8 and an organic matter content of about 1.8 percent) and calcareous grit in an 80 to 20 ratio. The soil matrix was contained in plastic pots with a volume of 1 quart and a surface area of 83.6 square centimeters (cm^2). When required to ensure good germination and healthy plants, a fungicide treatment and/or other chemical or physical treatment was applied. The plants were grown for 8-22 days in a greenhouse with an approximate 14 hr. photoperiod which was maintained at about 29° C. during the day and 26° C. during the night. Nutrients (Peters Excel® 15-5-15 5-Ca 2-Mg and iron chelate) were applied in the irrigation solution as needed and water was added on a regular basis. Supplemental lighting was provided with overhead metal halide 1000-Watt lamps as necessary. The plants were employed for testing when they reached the first through fourth true leaf stage.
Treatments consisted of the acid or esters of 4-amino-3-chloro-5-fluoro-6-(4-chloro-2-fluoro-3-methoxy-phenyl)pyridine-2-carboxylic acid (Compound A), each formulated as an SC (suspension concentrate), and various herbicidal components alone and in combination.
Other herbicidal components were applied on an acid equivalent (ae) or active ingredient (ai) basis and included acetyl coA carboxylase (ACCase)-inhibiting herbicides (cyclohexanedione and aryloxyphenoxypropionate chemical classes) cyhalofop-butyl formulated as Clincher® SF (285 gr ai/L EC), diclofop-methyl formulated as Hoelon® 3EC, fenoxaprop-p-ethyl+isoxadifen-ethyl formulated as RiceStar® HT (0.58 lb./gal EC), fenoxaprop-p-ethyl+mefenpyr diethyl formulated as Puma® IEC, metamifop formulated as Metamifop EC, haloxyfop-methyl formulated as Gallant Super®, fluazifop-p-butyl formulated as Fusilade® DX, quizalofop-p-ethyl formulated as Assure® II, profoxydim formulated as Aura® 20EC, clethodim applied as Intensity®, sethoxydim formulated as Poast®, and tralkoxydim formulated as Achieve®.
Treatment requirements were calculated based upon the rates being tested, the concentration of active ingredient or acid equivalent in the formulation, and a 12 mL application volume at a rate of 187 L/ha.
For treatments comprised of formulated compounds, measured amounts of compounds were placed individually in 25 mL glass vials and diluted in a volume of 1.25% (v/v) Agri-Dex® crop oil concentrated to obtain 12× stock solutions. […] Application solutions were prepared by adding an appropriate amount of each stock solution (e.g., 1 mL) and diluted to the appropriate final concentrations with the addition of 10 mL of an aqueous mixture of 1.25% (v/v) crop oil concentrate so that the final spray solutions contained 1.25+/−0.05% (v/v) crop oil concentrate.
All stock solutions and applications solutions were visually inspected for compound compatibility prior to application. Spray solutions were applied to the plant material with an overhead Mandel track sprayer equipped with a 8002E nozzles calibrated to deliver 187 L/ha over an application area of 0.503 m^2 at a spray height of 18 to 20 inches (46 to 50 cm) above average plant canopy height. Control plants were sprayed in the same manner with the solvent blank.
as §1, with “After approximately 3 weeks,” for “After 20-22 days,”, “the untreated” for “the control”, “injury or growth inhibition” for “injury”, “kill. […]” for “kill.”

Structure (SMILES): COc1c(Cl)ccc(-c2nc(C(=O)OCc3ccccc3)c(Cl)c(N)c2F)c1F [Compound A Benzyl Ester, benzyl ester of 4-amino-3-chloro-5-fluoro-6-(4-chloro-2-fluoro-3-methoxy-phenyl)pyridine-2-carboxylic acid]
- Visual Weed Control (%) - 21 DAA APESV Obs (APESV; Compound A Benzyl Ester 5 gai/ha): 0%
- Visual Weed Control (%) - 21 DAA APESV Obs (APESV; Compound A Benzyl Ester 10 gai/ha): 0%
- Visual Weed Control (%) - 20 DAA BRAPP Obs (BRAPP; 4.38 gae/ha): 50%
- Visual Weed Control (%) - 20 DAA BRAPP Obs (BRAPP; 8 gae/ha): 70%
- Visual Weed Control (%) - 20 DAA BRAPP Obs (BRAPP; 8.75 gae/ha): 70%
- Visual Weed Control (%) - 20 DAA BRAPP Obs (BRAPP; 16 gae/ha): 75%
- Visual Weed Control (%) - 20 DAA BRAPP Obs (BRAPP; 32 gae/ha): 90%
